We go through 24 molecules from US10399945B2, “Tetrahydronaphthyl urea derivative” (MOCHIDA PHARMACEUTICAL CO., LTD., priority 2017, dated 2019).

The assay deals with Human TrkA Protein (Homo sapiens (Human), UniProt P04629). The assay can be described thus: Evaluation of Binding Activity for Human TrkA Protein (TrkA LanthaScreen Eu Kinase Binding Assay). The following applies: TrkA enzyme, Kinase Tracer 236, TR-FRET, 60 minutes at room temperature. The method, then: (Pharmacological Experimental Example 1): Evaluation of Binding Activity for Human TrkA Protein
Sequence of Human TrkA Protein (P04629 33-796): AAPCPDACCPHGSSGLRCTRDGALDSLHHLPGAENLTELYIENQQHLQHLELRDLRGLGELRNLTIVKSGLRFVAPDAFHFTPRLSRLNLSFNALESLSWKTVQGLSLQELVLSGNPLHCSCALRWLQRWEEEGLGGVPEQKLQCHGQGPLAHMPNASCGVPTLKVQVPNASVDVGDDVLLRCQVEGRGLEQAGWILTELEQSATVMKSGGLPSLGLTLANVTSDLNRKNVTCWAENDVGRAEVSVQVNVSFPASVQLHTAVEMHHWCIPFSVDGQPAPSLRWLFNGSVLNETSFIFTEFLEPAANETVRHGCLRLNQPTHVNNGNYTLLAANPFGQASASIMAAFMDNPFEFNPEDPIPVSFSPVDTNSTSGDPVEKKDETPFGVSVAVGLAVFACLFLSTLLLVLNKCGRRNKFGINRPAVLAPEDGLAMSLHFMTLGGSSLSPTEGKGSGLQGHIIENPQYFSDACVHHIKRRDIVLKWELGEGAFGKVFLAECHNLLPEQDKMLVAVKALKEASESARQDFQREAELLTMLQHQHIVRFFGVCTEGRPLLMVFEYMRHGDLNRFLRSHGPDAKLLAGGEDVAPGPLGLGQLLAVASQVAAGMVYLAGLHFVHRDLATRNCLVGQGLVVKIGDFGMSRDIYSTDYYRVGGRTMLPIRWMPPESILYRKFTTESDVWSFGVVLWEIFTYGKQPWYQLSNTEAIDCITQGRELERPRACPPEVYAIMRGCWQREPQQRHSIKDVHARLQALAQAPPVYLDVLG
Measurement was carried out using TrkA LanthaScreen (registered trademark) Eu Kinase Binding Assay (ThermoFisher SCIENTIFIC). To a 384 well plate (Corning), 2.5 μL of the test compound having various concentrations and diluted with Kinase buffer (ThermoFisher SCIENTIFIC) and 2.5 μL of 15 nM TrkA enzyme (ThermoFisher SCIENTIFIC) were added. Moreover, […] Eu-anti-His Tag antibody (ThermoFisher SCIENTIFIC) and 5 μL of 30 nM Kinase (registered trademark) Tracer 236 (ThermoFisher SCIENTIFIC) were added, followed by reaction at room temperature for 60 minutes. After the reaction, the fluorescence intensity of Europium (Emission wavelength 615 nm) and TR-FRET (Emission wavelength 665 nm) with an excitation wavelength of 340 nm were measured with EnVision 2100 (PerkinElmer) to calculate the fluorescence ratio as the amount of the test compound and the TrkA enzyme bonded. The inhibitory activity (IC50 value) of each test compound was calculated with the fluorescence ratio of the well to which a solvent was added instead of the test compound being 0% and the fluorescence ratio of the well without addition of the TrkA protein being 100%.
In Table 1, […] mean Compounds 1 to 62 synthesized in accordance with Examples 1 to 62 described later.
In general terms: TR-FRET usually uses a lanthanide donor and a delayed reading to cut background.
Consider `Cc1cc(NC(=O)N[C@@H]2c3cc(F)c(F)cc3C(C)(C)C[C@H]2O)c(-c2ccccc2)nc1-c1cnn(C)c1` (racemic) [Compound 51, rac-1-((1R,2R)-6,7-difluoro-2-hydroxy-4,4-dimethyl-1,2,3,4-tetrahydronaphthalen-1-yl)-3-(5-methyl-6-(1-methyl-1H-pyrazol-4-yl)-2-phenylpyridin-3-yl)urea], for which the IC50 – broadly, the concentration at which inhibition is half-maximal – was not above 50 nM.

With `Cc1cc(NC(=O)N[C@@H]2c3ccccc3C(C)(C)C[C@H]2O)c(-c2ccccc2)nc1-c1ccc(C#N)nc1` [Compound 13, 1-(6′-cyano-3-methyl-6-phenyl-[2,3′-bipyridin]-5-yl)-3-((1R,2R)-2-hydroxy-4,4-dimethyl-1,2,3,4-tetrahydronaphthalen-1-yl)urea], the 50% inhibitory concentration (IC50) is not above 50 nM.

`Cc1cc(NC(=O)N[C@@H]2c3ccccc3C(C)(C)C[C@H]2O)c(-c2ccccc2)nc1-c1ccc(C#N)cc1` [Compound 16, 1-(6-(4-cyanophenyl)-5-methyl-2-phenylpyridin-3-yl)-3-((1R,2R)-2-hydroxy-4,4-dimethyl-1,2,3,4-tetrahydronaphthalen-1-yl)urea] returned an IC50 not above 50 nM. The value for `Cc1ccnc(-c2ccccc2)c1NC(=O)N[C@@H]1c2cc(F)c(F)cc2C(C)(C)C[C@H]1O` (racemic) [Compound 38, rac-1-((1R,2R)-6,7-difluoro-2-hydroxy-4,4-dimethyl-1,2,3,4-tetrahydronaphthalen-1-yl)-3-(4-methyl-2-phenylpyridin-3-yl)urea] was 50 to 1000 nM; that for `Cc1cc(NC(=O)N[C@@H]2c3ccccc3C(C)(C)C[C@H]2O)c(-c2ccccc2)nc1-c1cnn(C)c1` (racemic) [Compound 4, rac-1-((1R,2R)-2-hydroxy-4,4-dimethyl-1,2,3,4-tetrahydronaphthalen-1-yl)-3-(5-methyl-6-(1-methyl-1H-pyrazol-4-yl)-2-phenylpyridin-3-yl)urea] was not above 50 nM; that for `Cc1cc(NC(=O)N[C@@H]2c3ccccc3C(C)(C)C[C@H]2O)c(-c2ccccc2)nc1-c1ccc(S(C)(=O)=O)nc1` [Compound 14, 1-((1R,2R)-2-hydroxy-4,4-dimethyl-1,2,3,4-tetrahydronaphthalen-1-yl)-3-(3-methyl-6′-(methylsulfonyl)-6-phenyl-[2,3′-bipyridin]-5-yl)urea] was not above 50 nM.

Turning to `Cc1cc(NC(=O)N[C@@H]2c3ccccc3C(C)(C)C[C@H]2O)c(-c2ccccc2)nc1-c1cn[nH]c1` (racemic) [Compound 5, rac-1-((1R,2R)-2-hydroxy-4,4-dimethyl-1,2,3,4-tetrahydronaphthalen-1-yl)-3-(5-methyl-6-(1H-pyrazol-4-yl)-2-phenylpyridin-3-yl)urea], the IC50 was not above 50 nM. On to `Cc1cc(NC(=O)N[C@@H]2c3cc(F)c(F)cc3C(C)(C)C[C@H]2O)c(-c2ccccc2)nc1-c1cccc(C#N)c1` (racemic) [Compound 47, rac-1-(6-(3-cyanophenyl)-5-methyl-2-phenylpyridin-3-yl)-3-((1R,2R)-6,7-difluoro-2-hydroxy-4,4-dimethyl-1,2,3,4-tetrahydronaphthalen-1-yl)urea], for which the IC50 is not above 50 nM. The molecule `COCc1ccc2c(c1)[C@@H](NC(=O)Nc1cc(C)cnc1C1CCOCC1)[C@H](O)CC2(C)C` (racemic) [Compound 33, rac-1-((1R,2R)-2-hydroxy-7-(methoxymethyl)-4,4-dimethyl-1,2,3,4-tetrahydronaphthalen-1-yl)-3-(5-methyl-2-(tetrahydro-2H-pyran-4-yl)pyridin-3-yl)urea] came in with an IC50 not above 50 nM. Take `Cc1cc(NC(=O)N[C@@H]2c3cc(F)c(F)cc3C(C)(C)C[C@H]2O)c(C2CCOCC2)nc1C(N)=O` (racemic) [Compound 58, rac-5-(3-((1R,2R)-6,7-difluoro-2-hydroxy-4,4-dimethyl-1,2,3,4-tetrahydronaphthalen-1-yl)ureido)-3-methyl-6-(tetrahydro-2H-pyran-4-yl)picolinamide]: the IC50 is 50 to 1000 nM. In the case of `Cc1cc(NC(=O)N[C@@H]2c3cc(F)c(F)cc3C(C)(C)C[C@H]2O)c(-c2ccccc2)nc1-c1cccc(CO)c1` (racemic) [Compound 46, rac-1-((1R,2R)-6,7-difluoro-2-hydroxy-4,4-dimethyl-1,2,3,4-tetrahydronaphthalen-1-yl)-3-(6-(3-(hydroxymethyl)phenyl)-5-methyl-2-phenylpyridin-3-yl)urea], the IC50 is not above 50 nM. Turning to `Cc1cc(NC(=O)N[C@@H]2c3ccccc3C(C)(C)C[C@H]2O)c(-c2ccccc2)nc1CO` [Compound 8, 1-((1R,2R)-2-hydroxy-4,4-dimethyl-1,2,3,4-tetrahydronaphthalen-1-yl)-3-(6-(hydroxymethyl)-5-methyl-2-phenylpyridin-3-yl)urea], the IC50 is not above 50 nM. For the molecule `Cc1cc(NC(=O)N[C@@H]2c3cc(F)c(F)cc3C(C)(C)C[C@H]2O)c(-c2ccccc2)nc1-c1cn[nH]c1` (racemic) [Compound 53, rac-1-((1R,2R)-6,7-difluoro-2-hydroxy-4,4-dimethyl-1,2,3,4-tetrahydronaphthalen-1-yl)-3-(5-methyl-2-phenyl-6-(1H-pyrazol-4-yl)pyridin-3-yl)urea], the IC50 was not above 50 nM. For the molecule `Cc1cc(NC(=O)N[C@@H]2c3cc(F)c(F)cc3C(C)(C)C[C@H]2O)c(-c2ccccc2)nc1-c1ccn(C)n1` (racemic) [Compound 48, rac-1-((1R,2R)-6,7-difluoro-2-hydroxy-4,4-dimethyl-1,2,3,4-tetrahydronaphthalen-1-yl)-3-(5-methyl-6-(1-methyl-1H-pyrazol-3-yl)-2-phenylpyridin-3-yl)urea], the IC50 was not above 50 nM. In turn, `Cc1cnc(C2CCOCC2)c(NC(=O)N[C@@H]2c3cc(F)c(F)cc3C(C)(C)C[C@H]2O)c1` (racemic) [Compound 57, rac-1-((1R,2R)-6,7-difluoro-2-hydroxy-4,4-dimethyl-1,2,3,4-tetrahydronaphthalen-1-yl)-3-(5-methyl-2-(tetrahydro-2H-pyran-4-yl)pyridin-3-yl)urea] displayed an IC50 of 50 to 1000 nM. Turning to `Cc1cc(-c2nc(-c3ccccc3)c(NC(=O)N[C@@H]3c4cc(F)c(F)cc4C(C)(C)C[C@H]3O)cc2C)cnn1` (racemic) [Compound 49, rac-1-((1R,2R)-6,7-difluoro-2-hydroxy-4,4-dimethyl-1,2,3,4-tetrahydronaphthalen-1-yl)-3-(5-methyl-6-(6-methylpyridazin-4-yl)-2-phenylpyridin-3-yl)urea], the IC50 was not above 50 nM. The molecule `Cc1cc(NC(=O)N[C@@H]2c3ccccc3C(C)(C)C[C@H]2O)c(-c2ccccc2)nc1-c1cnc(C(F)(F)F)nc1` [Compound 15, 1-((1R,2R)-2-hydroxy-4,4-dimethyl-1,2,3,4-tetrahydronaphthalen-1-yl)-3-(5-methyl-2-phenyl-6-(2-(trifluoromethyl)pyrimidin-5-yl)pyridin-3-yl)urea] returned an IC50 not above 50 nM. Consider `Cc1cc(NC(=O)N[C@@H]2c3cc(F)c(F)cc3C(C)(C)C[C@H]2O)c(C2CCOCC2)nc1-c1cn[nH]c1` (racemic) [Compound 61a], for which the IC50 lay within 50 to 1000 nM. The value for `Cc1cc(NC(=O)N[C@@H]2c3ccccc3C(C)(C)C[C@H]2O)c(-c2ccccc2)nc1-c1cn[nH]c1` [Compound 18, 1-((1R,2R)-2-hydroxy-4,4-dimethyl-1,2,3,4-tetrahydronaphthalen-1-yl)-3-(5-methyl-2-phenyl-6-(1H-pyrazol-4-yl)pyridin-3-yl)urea] was not above 50 nM; that for `Cc1ncc(-c2nc(-c3ccccc3)c(NC(=O)N[C@@H]3c4cc(F)c(F)cc4C(C)(C)C[C@H]3O)cc2C)s1` (racemic) [Compound 50, rac-1-((1R,2R)-6,7-difluoro-2-hydroxy-4,4-dimethyl-1,2,3,4-tetrahydronaphthalen-1-yl)-3-(5-methyl-6-(2-methylthiazol-5-yl)-2-phenylpyridin-3-yl)urea] was 50 to 1000 nM. Next, `Cc1cc(NC(=O)N[C@@H]2c3ccccc3C(C)(C)C[C@H]2O)c(-c2ccccc2)nc1-c1cncc(C(F)(F)F)c1` [Compound 11, 1-((1R,2R)-2-hydroxy-4,4-dimethyl-1,2,3,4-tetrahydronaphthalen-1-yl)-3-(3-methyl-6-phenyl-5′-(trifluoromethyl)-[2,3′-bipyridin]-5-yl)urea]: not above 50 nM. For `Cc1cnc(C2CCOCC2)c(NC(=O)N[C@@H]2c3ccccc3C(C)(C)C[C@H]2O)c1` (racemic) [Compound 26, rac-1-((1R,2R)-2-hydroxy-4,4-dimethyl-1,2,3,4-tetrahydronaphthalen-1-yl)-3-(5-methyl-2-(tetrahydro-2H-pyran-4-yl)pyridin-3-yl)urea], the IC50 was not above 50 nM. `Cc1cc(NC(=O)N[C@@H]2c3cc(F)c(F)cc3C(C)(C)C[C@H]2O)c(-c2ccccc2)nc1-c1ccc(CO)cc1` (racemic) [Compound 45, rac-1-((1R,2R)-6,7-difluoro-2-hydroxy-4,4-dimethyl-1,2,3,4-tetrahydronaphthalen-1-yl)-3-(6-(4-(hydroxymethyl)phenyl)-5-methyl-2-phenylpyridin-3-yl)urea] yielded an IC50 not above 50 nM. Molecule `Cc1cnc(-c2ccccc2)c(NC(=O)N[C@@H]2c3cc(Br)ccc3C(C)(C)C[C@H]2O)c1` (racemic) [Compound 32, rac-1-((1R,2R)-7-bromo-2-hydroxy-4,4-dimethyl-1,2,3,4-tetrahydronaphthalen-1-yl)-3-(5-methyl-2-phenylpyridin-3-yl)urea] returned an IC50 not above 50 nM.
